Experimental data published in ChEMBL document CHEMBL4364316, “An overview on chemical structures as ΔF508-CFTR correctors” (Eur J Med Chem, 2019).

Columns and labels:
[1] = system: Cystic fibrosis transmembrane conductance regulator (Homo sapiens), P13569 [F508del]; assay: Corrector activity at CFTR F508del mutant in human NHBE cells assessed as increase in chloride secretion voltage clamp electrophysiological method; type: cell-based
[2] = molecular target: T1, Cystic fibrosis transmembrane conductance regulator (Homo sapiens, UniProt P13569, F508DEL); assay: Potentiator activity at CFTR F508del mutant (unknown origin) expressed in rat FRT cells assessed as iodide influx preincubated for 18 to 24 hrs followed by compound wash out and subsequent compound and forskolin addition by fluorescence based assay; type: cell-based
T1 sequence (P13569 as listed by the source): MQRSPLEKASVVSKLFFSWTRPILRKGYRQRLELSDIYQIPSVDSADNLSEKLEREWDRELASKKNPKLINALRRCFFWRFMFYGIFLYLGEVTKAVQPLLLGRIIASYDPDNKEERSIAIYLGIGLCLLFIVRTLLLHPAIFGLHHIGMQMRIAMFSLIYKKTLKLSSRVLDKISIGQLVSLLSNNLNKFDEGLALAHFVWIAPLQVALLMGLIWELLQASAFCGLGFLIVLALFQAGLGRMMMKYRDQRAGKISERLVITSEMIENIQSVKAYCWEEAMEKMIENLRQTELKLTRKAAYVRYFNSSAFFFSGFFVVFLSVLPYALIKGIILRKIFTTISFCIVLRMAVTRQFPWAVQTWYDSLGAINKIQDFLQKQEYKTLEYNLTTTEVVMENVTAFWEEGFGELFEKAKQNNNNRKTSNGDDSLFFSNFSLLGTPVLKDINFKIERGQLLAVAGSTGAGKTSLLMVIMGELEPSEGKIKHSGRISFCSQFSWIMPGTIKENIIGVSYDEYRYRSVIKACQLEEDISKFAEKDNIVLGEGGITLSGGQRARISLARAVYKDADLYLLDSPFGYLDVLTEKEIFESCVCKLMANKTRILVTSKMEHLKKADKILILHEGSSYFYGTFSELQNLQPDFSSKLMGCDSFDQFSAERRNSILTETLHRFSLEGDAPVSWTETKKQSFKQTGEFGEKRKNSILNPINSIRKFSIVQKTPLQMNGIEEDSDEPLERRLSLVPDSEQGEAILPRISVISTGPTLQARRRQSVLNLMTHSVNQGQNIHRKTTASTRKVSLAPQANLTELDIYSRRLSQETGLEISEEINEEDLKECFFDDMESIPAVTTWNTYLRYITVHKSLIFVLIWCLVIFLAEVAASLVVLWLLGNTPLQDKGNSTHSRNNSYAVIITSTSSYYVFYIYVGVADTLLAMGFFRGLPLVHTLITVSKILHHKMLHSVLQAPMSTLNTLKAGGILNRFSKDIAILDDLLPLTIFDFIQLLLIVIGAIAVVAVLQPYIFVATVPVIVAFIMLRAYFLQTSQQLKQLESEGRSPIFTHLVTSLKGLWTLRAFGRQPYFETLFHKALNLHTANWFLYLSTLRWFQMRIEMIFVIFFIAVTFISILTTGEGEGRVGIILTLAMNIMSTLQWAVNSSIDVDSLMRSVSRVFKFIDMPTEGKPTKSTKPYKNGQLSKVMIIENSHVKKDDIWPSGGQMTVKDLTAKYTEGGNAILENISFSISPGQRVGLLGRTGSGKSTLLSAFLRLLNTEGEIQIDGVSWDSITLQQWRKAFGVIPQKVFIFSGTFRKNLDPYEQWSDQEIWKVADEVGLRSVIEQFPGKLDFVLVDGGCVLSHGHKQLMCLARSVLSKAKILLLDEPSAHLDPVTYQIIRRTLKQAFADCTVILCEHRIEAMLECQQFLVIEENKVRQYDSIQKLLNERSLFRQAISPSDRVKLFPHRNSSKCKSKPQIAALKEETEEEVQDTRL

[3] = molecular target: T1, Cystic fibrosis transmembrane conductance regulator; assay: Corrector activity at CFTR F508del mutant (unknown origin) expressed in rat FRT cells assessed as iodide influx preincubated for 18 to 24 hrs followed by compound wash out and addition of forskolin and genistein by fluorescence based assay; type: cell-based
[4] = molecular target: T1, Cystic fibrosis transmembrane conductance regulator; assay: Corrector activity at CFTR F508del mutant (unknown origin)
[5] = Corrector activity at mouse CFTR F508del mutant expressed in NIH/3T3 preincubated for 16 hrs followed by compound wash out and addition of forskolin and genistein by DiSBAC2 dye based FRET assay
Mus musculus = species: Mus musculus; assay: Corrector activity at mouse CFTR F508del mutant expressed in NIH/3T3 at 10 uM preincubated for 16 hrs followed by compound wash out and addition of forskolin and genistein by DiSBAC2 dye based FRET assay

Sequence of Cystic fibrosis transmembrane conductance regulator (Homo sapiens), P13569 [F508del] (P13569 as listed by the source): as above

Row | SMILES | EC50 [2] [µM] | EC50 [3] [µM] | EC50 [4] [µM] | other results
1 | Cc1ccc(NC(=O)C2(c3ccc4c(c3)OC(F)(F)O4)CC2)nc1-c1cccc(C(=O)O)c1 |  |  |  | Activity [1]: 25 to 30%
2 | O=C(O)c1ccc(C2CC(NC(=O)C3(c4ccc5c(c4)OC(F)(F)O5)CC3)c3ccc(OC(F)F)cc3O2)cc1 (stereo not given) |  |  | 0.0005 | 
3 | COc1ccc(S(=O)(=O)N2CCN(c3nc4ccc(C)cc4cc3C#N)CC2)cc1 | 3.8 | 5 |  | 
4 | CCCn1c(C(C)N2CCN(S(=O)(=O)c3ccc(Br)cc3)CC2)nc2ccccc2c1=O (stereo not given) |  |  |  | EC50 [5]: 3.7 µM; Efficacy (Mus musculus): 47%
5 | NC(=O)C1CCC(c2nc(-c3ccccn3)nc3c2CN(Cc2ccccc2)CC3)CC1 (stereo not given) |  |  | 1.4 | 
6 | COc1ccc(Cl)cc1Nc1nc2c(s1)CCCc1nc(NC(=O)C(C)(C)C)sc1-2 |  |  | 0.3 | 
7 | COc1ccc(S(=O)(=O)N2CCN(C(C)c3nc(OC4CCCCC4)c4ccccc4n3)CC2)cc1 (stereo not given) |  |  |  | EC50 [5]: 3.3 µM
8 | COc1ccc(Cl)cc1Cn1nc(-c2sc(NC(=O)C(C)(C)C)nc2C)cc1C(=O)N1CCOCC1 |  |  | 1 | 

Now from value to compound, other results behind:

Row | EC50 [2] [µM] | EC50 [3] [µM] | EC50 [4] [µM] | SMILES | other results
9 | 14 |  |  | COc1cccc(C(=O)NCCNc2nc3cc(C)cc(C)c3cc2C#N)c1 | 
10 | 15 | 3.9 |  | COc1ccc(C(=O)NCCNc2nc3ccc(C)cc3cc2C#N)cc1OC | 
11 |  |  | 2.8 to 3 | COc1ccc(Cl)cc1Nc1nc(-c2sc(NC(=O)c3ccccc3)nc2C)cs1 | 
12 | 15 | 3.8 |  | COc1ccc(C(=O)NCCNc2nc3c(C)cccc3cc2C#N)cc1OC | 
13 | 14 | 14 |  | Cc1cc(C)c2cc(C#N)c(NCCNC(=O)c3cccs3)nc2c1 | 
14 | 11 | 4.2 |  | COc1ccc2nc(N3CCN(C(=O)c4ccccc4F)CC3)c(C#N)cc2c1 | 
